Values of other authors in PMC7732027 (Bioorganic & medicinal chemistry letters, 2019).

System: A/H3N2 viruses with PA I38T/F substitutions
Details: cited from earlier work

SMILES: COC(=O)OCOc1c2n(ccc1=O)N([C@@H]1c3ccccc3SCc3c1ccc(F)c3F)[C@@H]1COCCN1C2=O [BXM, baloxavir marboxil]
- reduction in BXM susceptibility: more than 10 fold
